US20080274892A1, “Novel Haloalkylsulfonanilide Derivative, Herbicide, and Method of Use Thereof” (priority 2005, published 2008)

Tests used:
bulrush [1] = experiment: Test Example 1: herbicidal efficacy on rice paddy weeds pre-emergence; type: in vivo, Scirpus juncoides; details: dosage 1000 g/ha, 21 days
false pimpernel [2] = experiment: as above; type: in vivo, Lindernia pyxidaria; details: dosage 1000 g/ha, 21 days
barnyard glass = experiment: Test Example 2: herbicidal efficacy on rice paddy weeds post-emergence; type: in vivo, Echinochloa crus-galli; details: dosage 1000 g/ha; post-emergence, one leaf stage; 21 days after treatment
Summary of the method: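 Plastic pots of 75 cm^2 were filled with clay loam soil and sown with barnyard glass and bulrush seeds, then topped with 75 cm^3 soil containing false pimpernel seeds. The pots were flooded to 5 cm water depth and held in a hot house. Twenty-one days after treatment, herbicidal efficacy was graded against an untreated control.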

bulrush [3] = experiment: as above; type: in vivo, Scirpus juncoides; details: dosage 1000 g/ha; post-emergence, one leaf stage; 21 days after treatment
false pimpernel [4] = experiment: as above; type: in vivo, Lindernia pyxidaria; details: dosage 1000 g/ha; post-emergence, one leaf stage; 21 days after treatment
[5] = tested on: paddy rice plant (cultivar: Nihonbare); experiment: Test Example 3: phytotoxicity test for transplanted paddy rice plant; type: in vivo; details: dosage 1000 g/ha; transplanted rice, treated 5 days after transplantation; 21 days after treatment
Summary of the method: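 Clay loam soil was placed in a 75 cm^2 plastic pot and flooded to a water depth of 5 cm. Two Nihonbare paddy rice plants at the two-leaf stage were transplanted 1 cm deep and grown in a hot house. After treatment, pots stayed in the hot house for 21 days, and phytotoxicity was then graded against an untreated control.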

bulrush [6] = experiment: Test Example 4: low dosage test for rice paddy weeds; type: in vivo, Scirpus juncoides; details: 300 g/ha as an active ingredient; plants treated at the one leaf stage; 21 days after treatment; vs untreated control
Summary of the method: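 Bulrush sown in clay loam pots, flooded to 5 cm water in a hot house, treated at the one-leaf stage with formulated compound at 300 g/ha. Efficacy scored 0–4 against untreated control 21 days after treatment (4 = 90–100%, 0 = 0% inhibition).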

[7] = tested on: transplanted paddy rice plant and Bulrush; experiment: Test Example 5: selectivity between transplanted paddy rice plant and weeds; type: in vivo; details: (highest dosage with no phytotoxicity to paddy rice)/(lowest dosage with effective level 4 on Bulrush); rice 3000-100 g/ha, Bulrush 300-10 g/ha; 21 days
Summary of the method: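 Transplanted paddy rice was treated at 3000, 1000, 300 and 100 g/ha active ingredient for phytotoxicity, and post-emergence bulrush at 300, 100, 30 and 10 g/ha. Plants were kept in a hothouse for 21 days. Growth inhibition versus untreated control was scored 0–4 (0%, 1–39%, 40–69%, 70–89%, 90–100%).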

SMILES: CCC1CN(Cc2ccccc2N(C(=O)OCC(C)C)S(=O)(=O)C(F)(F)F)C(=O)O1 (stereo not drawn) [Compound No. 1-24, 5-ethyl-3-{2-[N-(isobutoxycarbonyl)-N-(trifluoromethanesulfonyl)amino]benzyl}-2-oxazolidinone]
- Bulrush pre (herbicidal efficacy grade) (bulrush [1]): 4 (90%-100% of herbicidal efficacy or phytotoxicity)
- False pimpernel pre (herbicidal efficacy grade) (false pimpernel [2]): 4 (90%-100% of herbicidal efficacy or phytotoxicity)
- Burnyard grass post (herbicidal efficacy grade) (barnyard glass): 4 (90%-100% of herbicidal efficacy or phytotoxicity)
- Bulrush post (herbicidal efficacy grade) (bulrush [3]): 4 (90%-100% of herbicidal efficacy or phytotoxicity)
- False pimpernel post (herbicidal efficacy grade) (false pimpernel [4]): 4 (90%-100% of herbicidal efficacy or phytotoxicity)
- Phytotoxicity to paddy rice [5]: 0 (0% of herbicidal efficacy or phytotoxicity)
- Herbicide effect to Bulrush (bulrush [6]): 4 (90%-100% of herbicidal efficacy or phytotoxicity)
- Selective Index [7]: 33
- melting point: 85 to 87 °C

SMILES: CC1(C)CN(Cc2ccccc2NS(=O)(=O)C(F)(F)F)C(=O)S1 [Compound No. 1-184, 5,5-dimethyl-3-[2-(trifluoromethanesulfonylamino)benzyl]thiazolidin-2-one]
- Bulrush pre (herbicidal efficacy grade) (bulrush [1]): 4 (90%-100% of herbicidal efficacy or phytotoxicity)
- False pimpernel pre (herbicidal efficacy grade) (false pimpernel [2]): 4 (90%-100% of herbicidal efficacy or phytotoxicity)
- Burnyard grass post (herbicidal efficacy grade) (barnyard glass): 4 (90%-100% of herbicidal efficacy or phytotoxicity)
- Bulrush post (herbicidal efficacy grade) (bulrush [3]): 4 (90%-100% of herbicidal efficacy or phytotoxicity)
- False pimpernel post (herbicidal efficacy grade) (false pimpernel [4]): 4 (90%-100% of herbicidal efficacy or phytotoxicity)
- Phytotoxicity to paddy rice [5]: 1 (1%-39% of herbicidal efficacy or phytotoxicity)
- Herbicide effect to Bulrush (bulrush [6]): 4 (90%-100% of herbicidal efficacy or phytotoxicity)
- Selective Index [7]: 10
- melting point: 115 to 117.5 °C
